Results: patent US20200400567A1, “FUSION POLYPEPTIDE” (PEKING UNIVERSITY, priority 2017, published 2020)
“And” between values parts separate entries of the source, which are not always exact repeats. Equal entries are not always repeated. “Also recorded” adds a separate entry of the source. Where two headings read alike, the source gives them in different places. Values belong to the compound of their own block, whether it stands above or below them.

Tests used:
[1] = tested on: human acetylcholine receptor M3R subtype; assay: GRAB-ACh sensor fluorescence response to ACh, drug perfusion in HEK293T cells; format: cell-based
Experimental: After DNA encoding specific GRAB sensor was introduced into cells by transfection, fluorescence imaging combined with perfusion experiment was. The imaging capture of HEK293T cells was performed using an Olympus IX81 inverted microscope, 40×NA: 1.35 oil lens, 475/28 excitation light filter, and 515LP emission light filter. The optical signal was collected by a Zyla sCMOS DG-152V-Cle FI camera (Andor), and Lambda DG-4 from Sutter Instuments company was used as a fluorescent light source. The exposure time was set to less than 50 ms and the acquisition frequency was 5 seconds. The entire imaging system was overall controlled by micromanager software.
The detection of the response of the GRAB sensor to the ligand (ΔF/F0) was performed using a drug perfusion method. The cells were placed in a standard physiological solution, and the formula thereof is: […]
The pH of the physiological solution was adjusted to about 7.4, and the small molecule drug was diluted with a part of the physiological solution to formulate solutions of respective concentrations of the small molecule ligand. […] Unless explicitly specified, the concentration of isoproterenol (ISO) for perfusion was 2 μM, and the concentration of acetylcholine for perfusion was 100 μM.
The perfusion system was equipped on a microscope, including a solution-introduced system made of syringe for injection, a multi-way valve, an imaging workbench and a suction pump. During the perfusion process, the imaging workbench was placed above the objective lens of the inverted microscope, and then the slide on which cell plated were placed in the workbench. Perfusion of different drugs were performed by controlling the switches of different pipes. In order to control the level of the solution in the workbench, the perfusion speed was set to one drop or so per second. After each drug treatment, the cells were washed with a physiological solution for more than five minutes to ensure that there were no residual drugs that will affect subsequent experiments. After the end of each experiment, the perfusion pipe and the workbench were cleaned with 75% ethanol three times to ensure that the residual drugs and impurities were fully washed away.
Fluorescence imaging data was processed using ImageJ software. For the performance of GRAB sensors in HEK293T cells and neurons, the fluorescence of entire cell body was selected as the data processing region. For living Drosophila imaging, fluorescence images on the same Z axis were analyzed by ImageJ software. The change in the fluorescence signal was indicated by its relative difference. The signal of background area without the expression of the sensor was first subtracted from the fluorescence signal, so as to obtain the real expression of the intensity of the fluorescent protein. Then, by calculating the fluorescence value F after adding the drug and the average fluorescence value F0 before adding, the relative fluorescence change ΔF/F=(F−F0)/F0 was obtained as the fluorescence response of the sensor to a specific drug. The change of ΔF/F0 with time was further plotted by Origin 8.6 software.
Based on GRAB-ACh 1.0, this peptide linker was optimized. First, based on a flexible amino acid (glycine, alanine), the peptide segment was screened for optimal length. The specific strategy was to change the length of the peptide linkers at the N-terminus and C-terminus from 0 to 5 amino acids, respectively, and to randomly combine the N-terminus with C-terminus to obtain all possible permutations. Fusion protein expression vectors containing various arrangements were expressed in HEK293T cells and subjected to perfusion experiments.

[2] = tested on: human ADRA2A receptor; format: cell-based
Experimental: The perfusion system was set on a microscope, and including a solution-introduced system, an imaging cell, and a suction pump. During the perfusion process, the imaging cell was placed above the objective lens of the inverted microscope, and the slide with cultured cells was placed in the cell. The perfusion experiments of different drugs were performed by controlling the switches of the different pipes of the solution-introduced system. The perfusion speed was set to one drop or so per second. In order to ensure the stability of the focal plane, the liquid level was kept constant at all times, and the flow rate of each solution was adjusted accordingly. The aspiration speed was adjusted to maintain the liquid level in the cell over the slide.
The region of interest (ROI) and background area were selected manually prior to the perfusion experiment. The exposure time was set to less than 50 ms and the acquisition frequency was 5 seconds. The solution used for the perfusion was a physiological solution 4k (pH 7.3-7.4), which was used to formulate the drug to the desired concentration. The running time of the program was set to no more than 5 min. After using 4k to balance and stabilize the cells for about 60-90 s, the cells were perfused with drug for 60 s, and then washed with 4k. The excitation light for green fluorescent protein was 488 nm, and for red fluorescent protein was 568 nm. The laser intensity was adjusted according to the working state of the laser and the expression level of the cells.
After the end of the program, the time-fluorescence intensity data sheet was exported. The background was subtracted from the ROI to get the corresponding fluorescence value Ft, and the average value of the fluorescence value before adding the drug was used as the starting fluorescence F0 to calculate
The detection of the response of the GRAB sensor to the ligand (ΔF/F0) was performed by drug perfusion. The cells were maintained in a standard physiological solution, and the formula thereof is: […]
Fluorescence imaging data was processed using ImageJ software. For the fluorescence performance of GRAB sensors in HEK293T cells and neurons, the entire cell body was selected as the data processing region. The change in the fluorescence signal was usually indicated by its relative intensity change. The background area without the expression of the sensor was first subtracted from the fluorescence signal, so as to obtain the true expression intensity of the fluorescent protein.

[3] = tested on: human HTR2C receptor; format: cell-based; conditions: for agonist-induced change of GRAB-5-HT2.1 fluorescence signal: GRAB-5-HT2.1 in HEK293T cells; for antagonism of serotonin-induced increase of GRAB-5-HT2.1 fluorescence signal: antagonist added after serotonin
[4] = tested on: human DRD2 receptor; assay: GRAB-GDA3.0 fluorescence response in HEK293T cells, drug perfusion; format: cell-based; conditions: HEK293T cells
From the text: There are 5 subtypes of human dopamine receptors in the body, which are named DRD1-DRD5. For constructing a fluorescent sensor, the receptors were screened preliminarily by inserting a fluorescent protein at any position in the third intracellular loop of the receptor. […] Specifically, for the third intracellular loop of the human DRD2 receptor, the insertion sites were set every 15 amino acids. Human DRD2 receptors inserted with circular permutated fluorescent proteins at different positions were expressed in HEK293T cells, and drug perfusion experiments were conducted with dopamine. […] After the positions sensitive to conformational change were determined, the surrounding amino acid sites thereof were further screened. The sites surrounding the amino acid position 252 at N-terminus and the sites surrounding the amino acid position 357 at the C-terminus were combined and different sensors were constructed. The sensors were expressed in HEK293T cells and subjected to drug perfusion experiments with dopamine. […] The peptide linkers were GG at the N-terminus and GGAAA at the C-terminus.

[5] = tested on: GRAB-GDA3.0 signal in mushroom body (MB); assay: Odor-stimulated GRAB-GDA3.0 signal in mushroom body, in vivo two-photon imaging; set-up: species or system Drosophila
Experimental: Drosophila were kept in a 25-degree incubator with a standard medium. […] The adult Drosophila to be tested were transferred to a new culture tube within 0-2 days after emergence, and left at room temperature for 8-12 days. Before the imaging, the Drosophila were first fixed in a small dish, and then the square skull part near the eye was surgically removed to expose part of the brain. The adipose tissue and air sacs near the antennal lobes to be imaged were surgically removed to prevent interference with the fluorescent signal. In order to further reduce the degradation of image quality caused by the movement of Drosophila during the imaging, surgical forceps were used to cut the muscles underneath its halter. Throughout the dissection and imaging procedures, the brain of Drosophila was kept in a pre-chilled physiological solution, and the formula thereof is as follows: […]
Drosophila imaging was performed using an Olympus two-photon microscope, including Olympus BX61 WI microscope, 25×NA: 1.05 water lens, and Ti:Sapphire laser mode-locked laser for two-photon excitation. For GRAB sensor imaging experiments, the wavelength of the […] was set to 950 nm in order to successfully excite the fluorescent protein to produce fluorescence. The odor molecule isoamyl acetate (IA) used for stimulating Drosophila was purchased from Sigma, and was diluted in mineral oil at a ratio of 1:100. In the experiment, the isoamyl acetate was further diluted 5-40 times by mixing with air. The air mixed with odor molecules was provided at a position about 1 cm away from the tentacles of the Drosophila through a cavity about 1 cm wide on the experimental table. The odor molecule of different concentrations was tested by controlling the airflow. Each imaging cycle was 17.8 seconds, of which 5 to 10 seconds was the time for providing specific odor molecules. After the imaging experiment for odor function, the imaging area was scanned layer by layer with high resolution setting to obtain the distribution information of the olfactory bulb, which was later identified based on the information of olfactory bulb distribution at the antennal lobe reported in the literature.
The transgenic Drosophila UAS-GRAB-GDA3.0 was constructed to express the GRAB-GDA3.0 sensor in specific cells, driven by the corresponding GAL4 strain. First, GRAB-GDA3.0 was expressed in dopaminergic neurons (DAN) in all Drosophila, and the response induced by odor (isoamyl acetate) was examined by in vivo two-photon imaging (FIG. 39A).
A pharmacological study was performed on GRAB-GDA3.0.
The rate of GDA signal attenuation between normal Drosophila and Drosophila with reduced DAT expression was compared (this is the experiment of gene level research using DAT-RNAi described later). In DAN, the dopamine transporter (DAT) is located in the presynaptic membrane and […] DA intermittently and cyclically from the synapse. DAT-RNAi was used to inhibit DAT expression in DAN (FIG. 40G).

[6] = tested on: human acetylcholine receptor M3R subtype; assay: GRAB-ACh 2.0 kinetics, rapid local perfusion with high-speed line scanning; format: cell-based
Experimental: For the detection of GRAB sensor kinetics, a local drug delivery system was used for the experiment. The experiment was performed using an Olympus upright microscope BX51, wherein a 40×NA: 0.80 water lens was used for imaging, and a 710M camera (DVC) was used for image acquisition. The drug delivery system was controlled by ROE-200 (from Sutter instruments company), and the position of the drug delivery needle was controlled by the MPS-1 operating lever. For the dynamic characterization experiment of the sensor, the imaging was processed using a frequency of 50 HZ (with a resolution of 768×484 pixels) and a surface element partition of 2×2.
The Journal of pharmacology and experimental therapeutics 330, 660-668 (2009)) reduced the fluorescence signal in GRAB-ACh 2.0 expressing cells perfused with 100 μM ACh, with a smaller time constant of 762±75 ms (FIGS. 14b-c, right panel).
Target sequence in this assay (as listed by the source): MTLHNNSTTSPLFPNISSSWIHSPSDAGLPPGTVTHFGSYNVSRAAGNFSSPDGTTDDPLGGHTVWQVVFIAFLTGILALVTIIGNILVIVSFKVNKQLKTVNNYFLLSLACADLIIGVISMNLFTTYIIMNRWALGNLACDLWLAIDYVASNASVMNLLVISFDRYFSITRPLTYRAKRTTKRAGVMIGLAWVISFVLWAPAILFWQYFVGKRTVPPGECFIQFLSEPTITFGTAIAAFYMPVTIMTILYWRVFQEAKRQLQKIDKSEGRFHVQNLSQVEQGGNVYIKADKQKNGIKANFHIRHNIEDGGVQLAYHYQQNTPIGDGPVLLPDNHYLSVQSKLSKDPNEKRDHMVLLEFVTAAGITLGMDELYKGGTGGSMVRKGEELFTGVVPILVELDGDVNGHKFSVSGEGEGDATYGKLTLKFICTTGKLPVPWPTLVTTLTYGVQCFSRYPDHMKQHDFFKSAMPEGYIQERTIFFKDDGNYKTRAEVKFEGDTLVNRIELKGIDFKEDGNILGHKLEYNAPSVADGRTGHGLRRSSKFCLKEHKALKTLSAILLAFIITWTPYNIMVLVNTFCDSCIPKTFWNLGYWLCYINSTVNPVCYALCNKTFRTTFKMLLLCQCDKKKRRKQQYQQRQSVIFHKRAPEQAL

Compound: CCCN(CCC)CC1CCCCN1CCNC(=O)N1c2ccccc2C(=O)Nc2cccnc21 (centres unmarked) [AF-DX384]
effect of M3R antagonist on ACh-induced increase of fluorescence ([1]; GRAB-ACh 2.0 in HEK293T cell): completely blocked

Compound: Nc1nc2c(ncn2[C@@H]2O[C@H](COP(=O)(O)OP(=O)(O)OP(O)(O)=S)[C@@H](O)[C@H]2O)c(=O)[nH]1 [GTPγS]
effect of Gαi inhibition on concentration-dependent curve of GRAB-NE2.0 to NE ([2]; PTX co-transfection or GTPγS with digitonin): did not change the concentration-dependent curve

Compound: CC(C)NCC(O)c1ccc(O)c(O)c1 (centres unmarked) [ISO, Isoproterenol]
fluorescent signal change of GRAB-NE2.0 to ligand ([2]; GRAB-NE2.0, saturated concentration): no response | activation of GRAB-NE2.1 fluorescence signal by ligand ([2]; cells expressing GRAB-NE2.1): cannot

Compound: CNC[C@H](O)c1ccc(O)c(O)c1 [Epi, Epinephrine]
activation of GRAB-NE2.1 fluorescence signal by ligand [2]: can activate | fluorescent signal change of GRAB-NE2.0 to ligand [2]: exhibits a fluorescent signal change

Compound: CC(N)Cc1c[nH]c2ccc(OCc3cccs3)cc12 (centres unmarked) [BWT23C83]
agonist-induced change of GRAB-5-HT2.1 fluorescence signal [3]: cannot cause the change; also recorded: cannot change the fluorescent signal

Compound: GRAB-GDA3.0: human DRD2 receptor, positions 254 to 360 truncated, cpEGFP inserted, linkers GG-GGAAA, SEQ ID NO: 26
signal change ([4]; saturated concentration of dopamine): 110% | decay τ of odor-induced GDA signal ([5]; DAT-RNAi Drosophila): 1.85 s | decay τ of odor-induced GDA signal ([5]; WT Drosophila): 0.48 s

EC50 ([1]; ACh 10 nM to 100 μM, Boltzmann fit, n=4): ~700 nM | pEC50 ([1]; dose-dependent response to ACh): 6.12 ± 0.11 | time constant of fluorescence increase ([6]; ACh perfusion, single scan): 185 ms | time constant of fluorescence decrease ([6]; Tio perfusion, single scan): 696 ms | average on time constant ([6]; local ACh perfusion, single exponential fit, n=18): 279.4 ± 32.6 ms and 280 ± 32 ms | average off time constant ([6]; local antagonist perfusion in 100 μM ACh, n=11): 762.3 ± 74.9 ms and 762 ± 75 ms
Compound: GRAB-ACh 2.0: GRAB-ACh variant with GG-APSVA peptide linkers, SEQ ID NO: 16
ΔF/F0 peak response ([1]; 100 μM ACh perfusion, HEK293T cells): ~100% and 90.12±1.74% and 94.0±3.0% and 90% | ΔF/F0 response ([1]; ACh (100 μM), second round screening, HEK293T cells): ~0.9

Compound: Cc1cc(NC(=O)Nc2ccc3c(ccn3C)c2)sn1 [SB204741]
antagonism of serotonin-induced increase of GRAB-5-HT2.1 fluorescence signal [3]: cannot antagonize; also recorded: failed to inhibit

Compound: NCCc1ccc(O)c(O)c1 [dopamine, Dopamine]
activation or block of GRAB-GDA3.0 [4]: activated

Compound: COc1cc(OC)c(C(=O)CCCCN2CCC3(CC2)NC(=O)NC3=O)cc1NS(=O)(=O)c1ccc(C(F)(F)F)cc1 [RS102221]
antagonism of serotonin-induced increase of GRAB-5-HT2.1 fluorescence signal [3]: can antagonize; also recorded: can inhibit

Compound: CN1CCN(c2nc3cc(C(F)(F)F)ccc3n3cccc23)CC1.O=C(O)/C=C\C(=O)O.O=C(O)/C=C\C(=O)O [CGS12066B]
agonist-induced change of GRAB-5-HT2.1 fluorescence signal [3]: cannot cause the change; also recorded: cannot change the fluorescent signal

Compound: Clc1cccc(COc2cncc(N3CCNCC3)n2)c1 [CP809]
agonist-induced change of GRAB-5-HT2.1 fluorescence signal [3]: can cause the fluorescence signal change; also recorded: can induce changes in fluorescent signal

Compound: NC[C@H](O)c1ccc(O)c(O)c1 [NE, Norepinephrine]
activation of GRAB-NE2.1 fluorescence signal by ligand [2]: can activate | fluorescent signal change of GRAB-NE2.0 to ligand [2]: exhibits a fluorescent signal change

Compound: NC1=NCC2c3ccccc3Cc3ccccc3N12 (centres unmarked) [epinastine]
effect on odor (IA)-stimulated GDA signal in MB β' lobe ([5]; 10 μM antagonist in imaging solution, n=6): cannot be blocked; also recorded: failed to be blocked
